Consider three compounds from ChEMBL document CHEMBL1126639, “Centrally acting serotonergic and dopaminergic agents. 2. Synthesis and structure-activity relationships of 2,3,3a,4,9,9a-hexahydro-1H-benz[f]indole derivatives” (J Med Chem, 1993).

Assay [1] deals with Mus musculus. As to the kind of experiment: Antagonism of apomorphine for 10-20 minutes in reserpinized mice when a dose of 38 micro mol/kg is administered intraperitoneally. In kind it is functional.
Assay [2] has as its system Mus musculus. As to the kind of experiment: Antagonism of apomorphine for 0-10 minutes in reserpinized mice when a dose of 0.4 micro mol/kg is administered intraperitoneally. Type of assay: functional.
In assay [3] the test system is Mus musculus. As to the kind of experiment: Antagonism of apomorphine in reserpinized mice when a dose of 38 micro mol/kg is administered intraperitoneally. In kind it is functional.
Assay [4] concerns Mus musculus. Briefly: Ability to stimulate dopaminergic systems by effect on locomotor activity in reserpinized mice when a dose of 38 micro mol/kg is administered intraperitoneally. Type of assay: functional.
The subject of assay [5] is Mus musculus. As to the kind of experiment: Antagonism of apomorphine for 10-20 minutes in reserpinized mice when a dose of 3.8 micro mol/kg is administered intraperitoneally. In kind it is functional.
Assay [6] has as its system Mus musculus. As to the kind of experiment: Ability to stimulate dopaminergic systems by effect on locomotor activity in reserpinized mice when a dose of 3.8 micro mol/kg is administered intraperitoneally. In kind it is functional.
Assay [7] has as its system Mus musculus. As to the kind of experiment: Antagonism of apomorphine for 0-10 minutes in reserpinized mice when a dose of 38 micro mol/kg is administered intraperitoneally. In kind it is functional.
Assay [8] relates to Rattus norvegicus. As to the kind of experiment: (§1) Inhibition of firing rates of dopaminergic neurons in the substantia nigra pars compacta by intravenous injection in rats. Type of assay: functional.
The test system of assay [9] is Mus musculus. As to the kind of experiment: Antagonism of apomorphine in reserpinized mice when a dose of 3.8 micro mol/kg is administered intraperitoneally (**,p<0.10). Type of assay: functional.
In assay [10] the test system is Mus musculus. As to the kind of experiment: Antagonism of apomorphine in reserpinized mice when a dose of 0.4 micro mol/kg is administered intraperitoneally. In kind it is functional.
Assay [11] deals with Mus musculus. Briefly: Antagonism of apomorphine for 0-10 minutes in reserpinized mice when a dose of 3.8 micro mol/kg is administered intraperitoneally. In kind it is functional.
In assay [12] the target is T1, D(2) dopamine receptor (Rattus norvegicus, UniProt P61169). As to the kind of experiment: Binding affinity for [3H]raclopride-labeled dopamine receptor D2 in rat striatum. In kind it is tissue-based.
T1 sequence (P61169 whole entry): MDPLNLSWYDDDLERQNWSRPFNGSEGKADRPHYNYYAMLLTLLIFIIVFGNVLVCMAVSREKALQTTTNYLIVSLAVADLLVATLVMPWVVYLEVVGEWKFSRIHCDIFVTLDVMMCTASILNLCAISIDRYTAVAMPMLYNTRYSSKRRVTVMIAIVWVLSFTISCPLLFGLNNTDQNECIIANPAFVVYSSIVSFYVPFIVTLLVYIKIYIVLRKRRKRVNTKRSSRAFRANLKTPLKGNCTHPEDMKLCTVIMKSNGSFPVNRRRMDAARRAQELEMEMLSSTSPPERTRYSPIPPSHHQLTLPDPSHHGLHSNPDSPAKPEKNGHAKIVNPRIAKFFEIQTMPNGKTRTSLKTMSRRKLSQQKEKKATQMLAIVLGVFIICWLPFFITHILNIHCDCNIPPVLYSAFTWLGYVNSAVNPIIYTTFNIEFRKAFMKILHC
The subject of assay [13] is Mus musculus. Briefly: Ability to stimulate dopaminergic systems by effect on locomotor activity in reserpinized mice when a dose of 0.4 micro mol/kg is administered intraperitoneally. Type of assay: functional.
Assay [14] deals with D(2) dopamine receptor (Homo sapiens, UniProt P14416). As to the kind of experiment: Binding affinity against [3H]U-86,170-labeled dopamine receptor D2 in cloned CHO cells. Type of assay: cell-based.
Chain of D(2) dopamine receptor (Homo sapiens, UniProt P14416) (P14416 whole entry): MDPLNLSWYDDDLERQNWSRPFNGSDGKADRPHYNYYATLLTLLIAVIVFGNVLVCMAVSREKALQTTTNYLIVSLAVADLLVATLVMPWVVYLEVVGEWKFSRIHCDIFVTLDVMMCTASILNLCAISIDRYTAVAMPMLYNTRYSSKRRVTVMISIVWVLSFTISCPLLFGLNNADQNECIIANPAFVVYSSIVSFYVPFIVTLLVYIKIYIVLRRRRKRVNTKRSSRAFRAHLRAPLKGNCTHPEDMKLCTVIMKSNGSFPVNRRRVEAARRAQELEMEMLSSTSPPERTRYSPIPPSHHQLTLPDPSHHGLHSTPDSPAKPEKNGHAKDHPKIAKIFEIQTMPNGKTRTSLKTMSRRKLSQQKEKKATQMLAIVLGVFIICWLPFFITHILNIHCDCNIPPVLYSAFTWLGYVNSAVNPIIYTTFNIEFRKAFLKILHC
Assay [15] deals with Mus musculus. As to the kind of experiment: Antagonism of apomorphine for 10-20 minutes in reserpinized mice when a dose of 0.4 micro mol/kg is administered intraperitoneally. Type of assay: functional.
The test system of assay [16] is Rattus norvegicus. Briefly: Effect on the synthesis rates of dopamine in the rat ventral limbic brain region at 0.3 micro mol/kg. Type of assay: functional, Limbic system.
Assay [17] concerns Mus musculus. Briefly: Time of effect in the isolation-induced aggression behavioral assay in the mouse when a dose of 0.9 micro mol/kg is administered intraperitoneally. Type of assay: functional.
Assay [18] relates to Mus musculus. As to the kind of experiment: Effective dose on hypothermia in mouse when administered subcutaneously. Type of assay: functional. The conditions noted are these: sc.
Assay [19] deals with Rattus norvegicus. As to the kind of experiment: Effect on the synthesis rates of dopamine in the rat ventral limbic brain region at 3.0 micro mol/kg. Type of assay: functional, Limbic system.
Assay [20] is filed under the species Mus musculus. Briefly: Time of effect in the face-to-face behavioral assay in the mouse […]. In kind it is functional.
For assay [21], the system named is Mus musculus. As to the kind of experiment: Time of effect in the face-to-face behavioral assay in the mouse when a dose of 0.3 micro mol/kg is administered subcutaneously. In kind it is functional.
For assay [22], the system named is Mus musculus. As to the kind of experiment: Time of effect in the isolation-induced aggression behavioral assay in the mouse when a dose of 30 micro mol/kg is administered intraperitoneally. In kind it is functional.
The subject of assay [23] is Mus musculus. Briefly: Time of effect in the face-to-face behavioral assay in the mouse when a dose of 3.0 micro mol/kg is administered subcutaneously. Type of assay: functional.
Assay [24] concerns Felis catus. Briefly: Maximum decrease of sympathetic nerve activity (SND) in anesthetized cat has been expressed as percent control. In kind it is functional. Further details: scale not given: the % may be the effect or the level left.
Assay [25] deals with Felis catus. Briefly: Effective dose at which the sympathetic nerve activity (SND) has been reduced to 50% of the pretreatment value in anesthetized cat. Type of assay: functional.
Assay [26] deals with Sodium-dependent dopamine transporter (Rattus norvegicus) (UniProt P23977). Described as §1. Type of assay: functional, tissue-based.
Chain of Sodium-dependent dopamine transporter (Rattus norvegicus) (P23977 whole entry): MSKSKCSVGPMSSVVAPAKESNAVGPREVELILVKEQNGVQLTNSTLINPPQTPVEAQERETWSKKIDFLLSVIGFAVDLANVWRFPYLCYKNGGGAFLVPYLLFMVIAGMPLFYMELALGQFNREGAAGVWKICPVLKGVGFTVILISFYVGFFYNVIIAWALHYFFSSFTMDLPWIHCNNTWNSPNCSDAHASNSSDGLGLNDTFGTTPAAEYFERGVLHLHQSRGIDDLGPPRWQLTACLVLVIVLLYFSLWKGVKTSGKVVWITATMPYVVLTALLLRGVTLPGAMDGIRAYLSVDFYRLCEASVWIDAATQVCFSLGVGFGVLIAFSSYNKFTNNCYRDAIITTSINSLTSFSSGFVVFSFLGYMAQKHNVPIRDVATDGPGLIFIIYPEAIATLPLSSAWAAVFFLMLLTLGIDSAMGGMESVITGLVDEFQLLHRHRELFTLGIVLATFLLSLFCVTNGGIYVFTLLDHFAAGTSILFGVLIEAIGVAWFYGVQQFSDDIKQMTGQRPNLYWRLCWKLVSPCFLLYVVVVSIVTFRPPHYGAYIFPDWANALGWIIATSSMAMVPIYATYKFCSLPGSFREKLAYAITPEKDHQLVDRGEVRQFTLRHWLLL
Assay [27] has as its system Felis catus. Briefly: Maximum decrease of arterial blood pressure at sympathetic nerve activity (SND) in anesthetized cat has been observed following 1 mg/kg dose. In kind it is functional. Also noted: scale not given: the % may be the effect or the level left.
Assay [28] concerns Mus musculus. Briefly: Effective dose on hypothermia in mouse when administered through peroral route. In kind it is functional. The conditions noted are these: Mus musculus, po; read-out: ED50.
For assay [29], the system named is Rattus norvegicus. As to the kind of experiment: Effect on the synthesis rates of serotonin in the rat ventral limbic brain region 0.3 micro mol/kg. Type of assay: functional, Limbic system.
For assay [30], the species on record is Felis catus. As to the kind of experiment: Percent of arterial blood pressure at sympathetic nerve activity (SND) dose value was determined. In kind it is functional.
Assay [31] has as its system Mus musculus. As to the kind of experiment: Time of effect in the isolation-induced aggression behavioral assay in the mouse when a dose of 9.1 micro mol/kg is administered intraperitoneally. In kind it is functional.
In assay [32] the test system is Mus musculus. Briefly: Maximum decrease in temperature when compound is administered subcutaneously. Type of assay: functional.
Assay [33] deals with Rattus norvegicus. Briefly: Effect on the synthesis rates of serotonin in the rat ventral limbic brain region 3.0 micro mol/kg. In kind it is functional, Limbic system.
The target in assay [34] is Sodium-dependent dopamine transporter (Rattus norvegicus) (UniProt P23977). As to the kind of experiment: Inhibition of firing rates of serotonergic neurons in the dorsal raphe nucleus by intravenous injection in rats. In kind it is functional, tissue-based.
In assay [35] the test system is Mus musculus. As to the kind of experiment: Time of effect in the isolation-induced aggression behavioral assay in the mouse when a dose of 0.3 micro mol/kg is administered intraperitoneally. Type of assay: functional.
For assay [36], the system named is Mus musculus. Briefly: Time of effect in the face-to-face behavioral assay in the mouse when a dose of 30 micro mol/kg is administered subcutaneously. Type of assay: functional.
Assay [37] relates to Mus musculus. Briefly: Time of effect in the isolation-induced aggression behavioral assay in the mouse when a dose of 3.0 micro mol/kg is administered intraperitoneally. In kind it is functional.
Assay [38] concerns Mus musculus. As to the kind of experiment: Maximum decrease in temperature when compound is administered through peroral route. In kind it is functional.
Assay [39] concerns Rattus norvegicus. As to the kind of experiment: Effect on the synthesis rates of dopamine (DOPA accumulation) in the rat ventral limbic brain region at 3.4 uM/kg. In kind it is functional, Limbic system.
The subject of assay [40] is Mus musculus. As to the kind of experiment: Effective dose on hypothermia in mouse when administered subcutaneously (95% confidence levels). In kind it is functional. Particulars: sc.
In assay [41] the test system is Felis catus. Briefly: Maximum decrease of sympathetic nerve activity (SND) in anesthetized cat. In kind it is functional. Further details: scale not given: the % may be the effect or the level left.
Assay [42] concerns Rattus norvegicus. Briefly: Effect on the synthesis rates of serotonin (5-HTP accumulation) in the rat ventral limbic brain region 3.4 umol/kg. In kind it is functional, Limbic system.
In assay [43] the target is T1, D(2) dopamine receptor. Briefly: Inhibitory concentration against [3H]raclopride-labeled dopamine receptor D2 in rat striatum. In kind it is tissue-based.

`C=CCN1CC[C@@H]2Cc3c(O)cccc3C[C@H]21`: the Locomotor activity in assay [1] was determined as 34; in assay [2] it was 60; in assay [3], 103; in [4], 1549; in [5], 29; in assay [6], 1297. Besides, the Locomotor activity in assay [7] was determined as 54; in assay [9], 147; in assay [10] it was 141; in assay [11], 23; in assay [13], 1092; in [15], 61. In [8], the ED50 (as a rule, the dose at which the effect has come halfway, by size or by number of responders) was 0.002 µmol/kg. Further, the Ki (in general, the dissociation constant of the complex between target and ligand, obtained from inhibition or displacement) in assay [12] stood at 3 nM; in assay [14], 0.3 nM.
On to `CCCN(CCC)C1CCc2cccc(O)c2C1` (stereo not given) [8-OH-DPAT], for which the Control was 16% in assay [16]; 3% in assay [19]; 2% in assay [24]; 57% in assay [27]; -37% in [29]; -47% in [33]. The Time in [17] was found to be 20 s; in assay [20] it was 1.1 s; in [21] it was 1.6 s; in assay [22] it was 351 s; in assay [23], 5 s; in [31] it was 437 s. Besides, the Time in assay [35] was 11 s; in assay [36], 4.4 s; in [37] it was 310 s. The 50% effective dose (ED50) in assay [18] worked out at 1 µmol/kg; in assay [25] it was 0.03 µmol/kg; in [26], 2.25 µmol/kg; in assay [28], 9.7 µmol/kg; in [34], 0.005 µmol/kg. In assay [30], this compound displayed a BP of 66%. Moreover, the Max temperature decrease is given as 7.2 in [32] and 7.5 in [38].
On to `CCCN1[C@@H](C)C[C@@H]2Cc3cccc(OC)c3C[C@@H]21` (racemic), for which the Control in assay [39] is 32%; in [41], 25%; in assay [27], 63%; in assay [42], -44%. Further, the ED50 is 4.4 µmol/kg in [40], 1.18 µmol/kg in [25] and above 101 µmol/kg in [28]. This compound gave a BP in assay [30] of 85%. Further, the Max temperature decrease in assay [32] is listed as 7.8; in [38], 3.1. In [14], this compound displayed an inhibitory constant (Ki) of 464 nM. Besides, in assay [43], the IC50 (commonly the concentration that gives 50% inhibition) is above 1000 nM.
